Data as given in patent US20050202511A1, “AMP-activated protein kinase (AMPK) inhibitor screening assay” (priority 2002, published 2005).

Tests used:
AMPK = assay: Activation of AMPK (data not shown); assay type: biochemical; conditions: read-out: concentration giving half-maximal activation
AMPK-γ2 CBS3-4 construct = biological target: T1, AMPK-γ2 CBS3-4 construct (Homo sapiens, UniProt Q9UGJ0); assay: Displacement of AMP by AMP-S (competitive binding assay)
T1 construct: the C-terminal pair (CBS3-4, residues 430-556); made in house; host or cells: E. coli BL21 (DE3), vector pGEX-KG
T1 sequence (Q9UGJ0 430-556): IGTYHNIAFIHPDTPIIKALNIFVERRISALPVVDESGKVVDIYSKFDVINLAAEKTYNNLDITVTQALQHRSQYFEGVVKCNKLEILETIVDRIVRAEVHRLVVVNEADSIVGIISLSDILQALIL
Experimental: (§1) Various concentrations of [^14C]-AMP, [γ^32P] […] Reactions were stopped by spotting 10 ìl onto a Millipore MF Filter Membrane disc and rapidly washing under high vacuum with 1 ml of ice-cold TBS. Radioactivity was determined on the filters by scintillation counting. Non-specific binding (which was trivial) was determined by performing the assay with GST as a control, and was subtracted. […] Data were fitted to the binding models given in the text, using GraphPad Prism 3. Estimates of parameters resulting from fits are quoted in the text and Table 1±standard error, and the curves shown in figures are theoretical curves obtained using those estimates.

[1] = biological target: T2, cystathionine â-synthase CBS1-2 (WT) (Homo sapiens, UniProt P35520); assay: Filter binding assay, GST-CBS domain fusion; conditions: single-site model
T2 construct: 416-551 of cystathionine â-synthase; made in house; host or cells: E. coli BL21 (DE3)
Description: (§2) Finally, DNA encoding the C-terminal CBS domain pair from the enzyme cystathionine â-synthase was cloned and expressed.
(§3) For IMPDH2, DNAs encoding residues 112-232 or the full-length protein (1-514) were amplified using human liver cDNA (Clontech) as template, and cloned into pHAT20 (Clontech) using 5′-AgeI and 3′-KpnI sites added to the primers. For the other constructs, DNAs encoding residues 582-840 of CLC2, or 416-551 of cystathionine â-synthase, were amplified using human liver cDNA as template, and cloned into pGEX-KG as above using 5′-BamHI and 3′-XhoI sites added to the primers. All mutations were created using the Stratagene QuikChange Site-directed Mutagenesis system.
as §1

[2] = biological target: T3, cystathionine â-synthase CBS domain pair D444N (Homo sapiens, UniProt P35520, D444N); assay: Filter binding assay, GST-CBS domain fusion
T3 construct: 416-551 of cystathionine â-synthase; made in house; host or cells: E. coli BL21 (DE3)
Description: as §2, §3, §1

[3] = biological target: cystathionine â-synthase D444N mutant (Homo sapiens, UniProt P35520, D444N); conditions: concentrations of SAM up to 300 μM; cited from earlier work
[4] = biological target: wild type cystathionine â-synthase (Homo sapiens, UniProt P35520); conditions: read-out: half-maximal effect (activation); cited from earlier work

Nc1ncnc2c1ncn2[C@@H]1O[C@H](COP(O)(O)=S)[C@@H](O)[C@H]1O [AMP-S, adenosine 5′-O-monothiophosphate]
EC50 (AMPK): 3.1 µM | Kd fold lower than the Kd of CBS3-4 for AMP (AMPK-γ2 CBS3-4 construct): 2 fold | Kd (AMPK-γ2 CBS3-4 construct; read-out: Kd from single site competitive binding model): 48 ± 12 µM

C[S+](CC[C@H](N)C(=O)O)C[C@H]1O[C@@H](n2cnc3c(N)ncnc32)[C@H](O)[C@@H]1O (some centres unmarked) [S-adenosyl methionine]
Kd [1]: 34 µM | increase in Kd relative to wild type [2]: 15 fold | Kd ([2]; single-site model): 510 ± 70 µM | activation [3]: not significantly activated | EC50 [4]: ~20 µM
